# Tests used:
# [1] = DPPH test for the elimination of free radicals (activity as free-radical scavenger); settings: DPPH 100 μmol/l in methanol, absorption at 515 nm; smaller = better
# Procedure: The activity of the exemplary compounds as free-radical scavengers was compared with conventional free-radical scavengers. For this, the DPPH (1,1-diphenyl-2-picryl-hydrazyl) test for the elimination of free-radicals was employed (Lebensm.-Wiss. u. Technol., 1995, vol. 28, pp. 25 to 30).
# DPPH was dissolved in methanol to give a concentration of 100 μmol/l. A series of dilutions of the example compounds, vitamin C, α-tocopherol and 3,5-ditert-butyl-4-hydroxytoluene were prepared in methanol. Methanol served as control. 2500 μl of the DPPH solution were mixed with 500 μl of each test solution and the decrease in absorption at 515 nm was read off until the decrease was less than 2% per hour. The activity of the test substances as free-radical scavengers was calculated from the following equation:
# Activity as free-radical scavenger (%)=100−(absorption of the test compounds)/absorption of the control)×100.
# From activity as free-radical scavenger (%) in a number of dilutions of test compounds, for each test compound the effective relative concentration EC50 (based on the initial concentration of DPPH, EC=c (test compound)/c(DPPH)) of a test compound was calculated at which the free-radical DPPH was eliminated by 50%. The smaller the EC50 values, the better is the free-radical scavenging action.
# [2] = Rancimat accelerated autoxidation of lipids by air, soya bean oil; settings: antioxidant power AP = IP(with test solution)/IP(control sample), soya bean oil purified on alumina type N, 0.05% test substance, higher = better
# Procedure: (§1) The activity of the example compounds as antioxidants was compared with that of conventional antioxidants. The test system used was accelerated autoxidation of lipids by air with or without antioxidants, using the Rancimat apparatus (Deutsche Lebensmiftel-Rundschau 1974, vol. 70, pp. 57 to 65) (Rancimat is a registered trademark of Metrohm AG, Herisau, Switzerland).
# (§2) The example compounds, vitamin C, α-tocopherol and 3,5-ditert-butyl-4-hydroxytoluene were dissolved in methanol or acetone and 100 μl of the respective test solution were added to a prepared oil sample of 3 g. Only solvent was added to a control sample. A constant dry air stream (20 I/h) was blown through the heated oil sample containing the test solution and the volatile oxidation products (principally short-chain fatty acids, such as formic acid or acetic acid) were collected in a receiver containing water. The conductivity of this aqueous solution was measured continuously and documented. The oxidation of (unsaturated) fats proceeds here only very slowly for a period, and then suddenly increases. The time until the increase is termed the induction period (IP).
# (§3) From the equation below, the antioxidant power (AP) was obtained:
# (§4) AP=IP(with test solution)/IP(control sample).
# (§5) The higher the AP, the higher is the antioxidant activity.
# [3] = Rancimat accelerated autoxidation of lipids by air, squalene; settings: antioxidant power AP = IP(with test solution)/IP(control sample), squalene purified on alumina type N, stabilized with 1 ppm α-tocopherol
# Procedure: as §1, §2, §3, §4, §5
# The results for the experiment at 80° C. in squalene which was purified on alumina type N and stabilized with 1 ppm of α-tocopherol are shown in Table 7: […]
"EC50 (effective relative concentration, c(test compound)/c(DPPH), at which the free-radical DPPH was eliminated by 50%) [1]",Compound,AP in soya bean oil at 100° C. containing 0.05% of test substance [2],AP in squalene at 80° C. containing 0.005% test substance [3]
0.24 mol/mol,"Cc1cc(C(C)(C)C)c(O)c(C(C)(C)C)c1 [3,5-Ditert-butyl-4-hydroxytoluene, reference compound]",4.8,38
0.35 mol/mol,"CC(C)[C@@H]1CC[C@@H](C)C[C@H]1OC(=O)NCCc1ccc(O)c(O)c1 [Example 2, N-[2-(3,4-Dihydroxyphenyl)ethyl]-O-[(1R,3R,4S)-menthyl]urethane]",7.1,25
0.24 mol/mol,"CCCCCCOC(=O)NCCc1ccc(O)c(O)c1 [Example 3, N-[2-(3,4-Dihydroxyphenyl)ethyl]-O-hexylurethane]",9.8,46
0.25 mol/mol,"CCCCC(CC)COC(=O)NCCc1ccc(O)c(O)c1 (centres unmarked) [Example 4, N-[2-(3,4-Dihydroxyphenyl)ethyl]-O-(2-ethylhexyl)urethane]",7.6,50
,"CCCCCCNC(=S)NCCc1ccc(O)c(O)c1 [Example 5, N-[2-(3,4-Dihydroxyphenyl)ethyl]-N′-hexylthiourea]",14.4,59
0.20 mol/mol,"CCCCCCNC(=O)NCCc1ccc(O)c(O)c1 [Example 6, N-[2-(3,4-Dihydroxyphenyl)ethyl]-N′-hexylurea]",26,60
0.27 mol/mol,"O=C1O[C@H]([C@@H](O)CO)C(O)=C1O [Vitamin C, reference compound]",1.2,0.7
0.25 mol/mol,"Cc1c(C)c2c(c(C)c1O)CC[C@@](C)(CCC[C@H](C)CCC[C@H](C)CCCC(C)C)O2 [α-Tocopherol, reference compound]",5.1,39

Compound,"EC50 (effective relative concentration, c(test compound)/c(DPPH), at which the free-radical DPPH was eliminated by 50%) [1]",AP in soya bean oil at 100° C. containing 0.05% of test substance [2],AP in squalene at 80° C. containing 0.005% test substance [3]
"COC(=O)NCCc1ccc(O)c(O)c1 [Example 1, N-[2-(3,4-Dihydroxyphenyl)ethyl]-O-methylurethane]",0.27 mol/mol,15.3,76
